Results published in patent publication US6303591A, “21-hydroxy-6,19-oxidoprogesterone (21OH-6OP) and its use as medicament for treating excess of glucocorticoids” (Applied Research Systems ARS Holding NV, priority 1997, dated 2001).
Entries after “also recorded” stand apart in the source; their conditions may differ.

What was measured:
[1] = target: T1, MR from rat kidney (kidney cytosol) (Rattus norvegicus, UniProt P22199); test: competition with (^3 H)-ALDO for MR, rat kidney cytosol; assay type: binding
T1 sequence (P22199 1-981): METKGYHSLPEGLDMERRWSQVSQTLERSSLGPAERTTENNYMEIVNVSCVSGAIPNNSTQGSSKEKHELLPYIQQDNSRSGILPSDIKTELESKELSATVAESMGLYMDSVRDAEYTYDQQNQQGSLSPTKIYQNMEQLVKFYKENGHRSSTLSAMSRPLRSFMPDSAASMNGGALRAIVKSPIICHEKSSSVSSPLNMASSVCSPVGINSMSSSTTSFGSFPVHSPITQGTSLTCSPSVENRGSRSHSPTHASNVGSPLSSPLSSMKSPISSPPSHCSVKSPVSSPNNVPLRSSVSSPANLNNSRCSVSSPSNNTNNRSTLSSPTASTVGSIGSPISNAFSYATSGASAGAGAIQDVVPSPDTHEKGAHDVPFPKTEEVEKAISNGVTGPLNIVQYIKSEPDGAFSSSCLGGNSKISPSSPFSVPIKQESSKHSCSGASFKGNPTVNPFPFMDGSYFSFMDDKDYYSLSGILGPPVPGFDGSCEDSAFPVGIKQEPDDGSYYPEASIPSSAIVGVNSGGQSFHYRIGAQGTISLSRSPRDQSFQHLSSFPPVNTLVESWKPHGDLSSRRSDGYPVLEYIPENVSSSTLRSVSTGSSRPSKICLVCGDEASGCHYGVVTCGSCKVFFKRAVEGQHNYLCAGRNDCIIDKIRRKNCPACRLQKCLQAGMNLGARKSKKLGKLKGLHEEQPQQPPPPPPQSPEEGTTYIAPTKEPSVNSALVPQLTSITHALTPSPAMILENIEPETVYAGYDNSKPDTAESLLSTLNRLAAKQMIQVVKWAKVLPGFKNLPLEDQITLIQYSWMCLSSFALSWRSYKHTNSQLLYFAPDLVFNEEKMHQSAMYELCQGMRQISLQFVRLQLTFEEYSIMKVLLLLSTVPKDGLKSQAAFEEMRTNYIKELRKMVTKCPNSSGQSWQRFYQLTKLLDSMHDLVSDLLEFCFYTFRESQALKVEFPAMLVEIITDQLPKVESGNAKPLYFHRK
Experimental: (§1) Binding Assay: Adrenalectomized male Sprague-Dawley rats were bled to death by heart puncture. Cold 0.9% NaCI was injected profusely through the aorta until organs were completely blanched. Thymuses were used as a source of GR and kidneys as a source of MR. Homogenization and incubation conditions were performed as previously described, (14) and (15), respectively. Briefly, homogenates performed in cold TEGM buffer at pH 7.4 (0.1 M Tris-HCl, 10 mM EDTA, 10 mM α-mercaptoethanol, 20 mM Na2 MoO4, 25% glycerol, 0.1 mM PMSF, 2.0 TIU/ml aprotinin and 1 mg% Leupeptin) were centrifuged at 37,000 rev. for 30 min at 0° C. Supernatants from this centrifugation are referred to as "cytosol". […] (^3 H)-P4 binding to uterus PR was assayed on immature female rats according to Jordan et al (16).
(§2) Relative binding affinity (RBA) for partially purified CBG was determined by steroid competition for (^3 H)-B binding as described previously (14).
The displacement curve of 6,19-oxidoprogesterone is included for comparative purposes.

[2] = target: T2, uterus PR (progesterone receptor) (Rattus norvegicus, UniProt Q63449); test: (^3 H)-P4 binding to uterus cytosols (PR); details: uterus cytosol, 12 h at 0° C., 1 μM cortisol
T2 sequence (Q63449 1-923): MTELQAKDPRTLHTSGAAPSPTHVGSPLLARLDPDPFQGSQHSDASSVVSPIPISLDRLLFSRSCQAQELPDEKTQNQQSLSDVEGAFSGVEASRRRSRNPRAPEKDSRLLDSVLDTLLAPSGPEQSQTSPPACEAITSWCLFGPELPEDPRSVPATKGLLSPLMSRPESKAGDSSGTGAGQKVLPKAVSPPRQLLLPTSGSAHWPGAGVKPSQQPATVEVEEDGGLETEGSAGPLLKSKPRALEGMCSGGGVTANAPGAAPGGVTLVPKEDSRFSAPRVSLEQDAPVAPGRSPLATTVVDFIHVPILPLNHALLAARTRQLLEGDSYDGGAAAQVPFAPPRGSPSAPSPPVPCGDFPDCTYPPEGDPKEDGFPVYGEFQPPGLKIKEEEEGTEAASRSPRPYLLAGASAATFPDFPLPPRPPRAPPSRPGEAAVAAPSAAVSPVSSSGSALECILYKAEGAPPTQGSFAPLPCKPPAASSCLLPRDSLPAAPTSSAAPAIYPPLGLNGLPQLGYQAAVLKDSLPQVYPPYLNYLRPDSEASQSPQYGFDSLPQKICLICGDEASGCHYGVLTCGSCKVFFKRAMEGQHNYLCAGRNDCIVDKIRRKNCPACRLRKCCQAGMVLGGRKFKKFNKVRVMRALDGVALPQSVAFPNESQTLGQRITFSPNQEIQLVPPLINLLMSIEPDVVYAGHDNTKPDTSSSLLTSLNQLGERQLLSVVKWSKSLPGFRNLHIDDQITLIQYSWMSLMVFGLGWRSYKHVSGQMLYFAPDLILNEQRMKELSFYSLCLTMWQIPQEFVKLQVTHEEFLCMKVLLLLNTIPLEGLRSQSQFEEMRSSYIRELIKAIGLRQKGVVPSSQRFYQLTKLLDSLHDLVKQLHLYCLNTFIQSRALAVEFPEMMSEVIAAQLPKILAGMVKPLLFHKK
Experimental: as §1, §2

SMILES: C[C@]12CC[C@H]3[C@@H](C[C@H]4OC[C@@]35CCC(=O)C=C45)[C@@H]1CC[C@@H]2C(=O)CO [21OH-6OP, 21-hydroxy-6,19-oxidoprogesterone]
- competition with (^3 H)-ALDO for MR / interaction with MR ([1]; kidney cytosol, 5 nM (^3 H)-ALDO, 1.0 μM RU28362): unable to cross-react with uterus-PR or kidney-MR; also recorded: does not compete efficiently with (^3 H)-ALDO for MR, even when a thousand fold excess was added; also recorded: no ability to interact with MR nor PR
- change of binding to MR by 21-hydroxyl introduction ([1]; vs 6,19-oxidopregnane skeleton, panel 2-C): does not improve the binding of the 6,19-oxidopregnane skeleton to MR
- displacement of (^3 H)-P4 from uterus receptors / cross-reaction with PR [2]: unable to cross-react with uterus-PR or kidney-MR; also recorded: does not cross-react with progesterone receptor; also recorded: as weakly as the negative control 17β-estradiol; also recorded: no ability to interact with MR nor PR; also recorded: does not cross-react with PR
